Counter-ions that a name gives are not always drawn.
The compounds below were run against T1, SMO (Mus musculus, UniProt P56726) (assay: Smoothened (SMO)/Sonic Hedgehog (SHh) Transient Transcriptional Activation Assay (Gli-luciferase reporter in C3H10T1/2 cells)). Settings: 2 uM test compound, SHh 250 ng/ml, 20 hrs.
T1 construct: endogenous in cells; host or cells: C3H10T1/2 (ATCC #CCL-226)
Assay type: cell-based, murine
In short: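 C3H10T1/2 cells transiently transfected with a 10× murine Gli-responsive firefly luciferase reporter plus pEGFP, serum-starved 20 h in 0.5% calf serum, then treated with compounds (2 uM–2 nM final) and 250 ng/ml recombinant human SHh for 20 h at 37 °C. Read-out: Dual-Glo luminescence.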

T1 sequence (P56726 33-793): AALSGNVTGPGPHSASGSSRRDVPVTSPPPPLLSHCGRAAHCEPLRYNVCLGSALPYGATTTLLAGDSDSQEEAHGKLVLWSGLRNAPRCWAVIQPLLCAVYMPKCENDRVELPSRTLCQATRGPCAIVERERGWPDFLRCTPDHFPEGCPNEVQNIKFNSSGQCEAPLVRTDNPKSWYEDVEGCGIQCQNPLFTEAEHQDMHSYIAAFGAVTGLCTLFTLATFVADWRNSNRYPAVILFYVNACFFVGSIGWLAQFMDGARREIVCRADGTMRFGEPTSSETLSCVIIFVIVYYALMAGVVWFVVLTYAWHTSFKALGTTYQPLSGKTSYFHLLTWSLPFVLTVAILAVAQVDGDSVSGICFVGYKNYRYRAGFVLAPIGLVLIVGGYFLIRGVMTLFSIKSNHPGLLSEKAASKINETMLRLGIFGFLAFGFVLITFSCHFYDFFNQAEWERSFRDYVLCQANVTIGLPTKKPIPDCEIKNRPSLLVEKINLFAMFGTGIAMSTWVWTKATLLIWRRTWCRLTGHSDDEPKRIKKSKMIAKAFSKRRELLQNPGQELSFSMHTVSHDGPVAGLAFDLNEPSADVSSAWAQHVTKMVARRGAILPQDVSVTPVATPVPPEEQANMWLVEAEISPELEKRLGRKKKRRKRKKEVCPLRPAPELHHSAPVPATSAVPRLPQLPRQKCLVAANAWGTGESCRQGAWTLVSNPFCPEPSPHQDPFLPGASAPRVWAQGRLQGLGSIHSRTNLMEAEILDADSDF

Compound | SMO % inhibition at 2 uM [%]
N-((1R,3R)-3-(1H-benzo[d]imidazol-2-yl)cyclohexyl)-3-oxo-3,4-dihydro-2H-benzo[b][1,4]oxazine-6-carboxamide and N-((1S,3S)-3-(1H-benzo[d]imidazol-2-yl)cyclohexyl)-3-oxo-3,4-dihydro-2H-benzo[b][1,4]oxazine-6-carboxamide [Example 48] | 80
N-(3-(6-(Hydroxymethyl)-1-methyl-1H-benzo[d]imidazol-2-yl)cyclohexyl)-2,3-dihydrobenzo[b][1,4]dioxine-6-carboxamide and N-(3-(5-(Hydroxymethyl)-1-methyl-1H-benzo[d]imidazol-2-yl)cyclohexyl)-2,3-dihydrobenzo[b][1,4]dioxine-6-carboxamide [Example 30] | 104

Same assay, conditions: 2 μM test compound, SHh 250 ng/ml, 20 hrs

Compound | SMO CELL % INHIBITION @ 2 μM [%]
Cl.O=C(NC12CCCC(c3nc4cc(C(F)(F)F)ccc4[nH]3)(C1)C2)c1ccc2c(c1)OCCO2 [Example 258, N-{5-[5-(trifluoromethyl)-1H-benzimidazol-2-yl]bicyclo[3.1.1]hept-1-yl}-2,3-dihydro-1,4-benzodioxine-6-carboxamide HCL] | 99.22

Same assay, conditions: 2 μM test compound, SHh 250 ng/ml, 20 hrs, 2 µM

Compound | SMO CELL % INHIBITION @ 2 μM [%]
COc1cc(OC)cc(C(=O)N[C@@H]2CCC[C@H](c3nc4ccc(C(F)(F)F)cc4[nH]3)C2)c1 [Example 171, 3,5-dimethoxy-N-{(1R,3S)-3-[6-(trifluoromethyl)-1H-benzimidazol-2-yl]cyclohexyl} benzamide (+)-tartrate] | 107.2
CN1CCCc2cc(C(=O)N[C@@H]3CCC[C@H](c4nc5ccccc5[nH]4)C3)ccc21 [Example 201, N-[(1R,3S)-3-(1H-benzimidazol-2-yl)cyclohexyl]-1-methyl-1,2,3,4-tetrahydroquino-line-6-carboxamide triflouroacetate] | 101

Same assay, conditions: C3H 10T1/2, 2 uM test compound, SHh 250 ng/ml, 20 hrs, read-out: SMO % inhibition at 2 uM

Compound | inhibition at 2 µM [%]
COc1cc(OC)cc(C(=O)NC2CCCC(c3nc4ccc(C(F)(F)F)cc4[nH]3)C2)c1 (centres unmarked) [Example 24, 3,5-Dimethoxy-N-(3-(6-(trifluoromethyl)-1H-benzo[d]imidazol-2-yl]cyclohexyl)benzamide] | 105
COc1cc(OC)cc(C(=O)NC2CCCC(c3nc4ccccc4n3CCO)C2)c1 (racemic) [Example 13, N-(3-(1-(2-Hydroxyethyl)-1H-benzo[d]imidazol-2-yl)cyclohexyl)-3,5-dimethoxybenzamide (cis-isomer)] | 98

Same assay, conditions: C3H 10T1/2, 2 μM test compound, SHh 250 ng/ml, 20 hrs, read-out: SMO CELL % INHIBITION @ 2 μM

Compound | inhibition at 2 µM [%]
O=C(N[C@@H]1CCC[C@H](c2nc3ccc(C(F)(F)F)cc3[nH]2)C1)c1ccc2c(c1)OCCO2 [Example 223, N-((1R,3S)-3-[6-(trifluoromethyl)-1H-benzimidazol-2-yl]cyclohexyl]-2,3-dihydro-1,4-benzodioxine-6-carboxamide HCl] | 105
Cn1c(C(=O)N[C@@H]2CCC[C@H](c3nc4ccccc4[nH]3)C2)nc2ccccc21 [Example 175, N-[(1R,3S)-3-(1H-benzimidazol-2-yl)cyclohexyl]-1-methyl-1H-benzimidazole-2-carboxamide HCl] | 81
O=C(Cn1ncc2ccccc21)NC1CCCC(c2nc3ccccc3[nH]2)C1 (centres unmarked) [Example 95, N-[3-(1H-benzimidazol-2-yl)cyclohexyl]-2-(1H-indazol-1-yl)acetamide triflouroacetate] | 20
O=C(N[C@@H]1CCC[C@H](c2nc3ccccc3[nH]2)C1)c1ccc2c(c1)OCCO2 [Example 64, N-[(1R,3S)-3-(1H-benzimidazol-2-yl)cyclohexyl]-2,3-dihydro-1,4-benzodioxine-6-carboxamide triflouroacetate] | 108
Cn1c(=O)[nH]c2cc(C(=O)N[C@@H]3CCC[C@H](c4nc5ccccc5[nH]4)C3)ccc21 [Example 217, N-[(1R,3S)-3-(1H-benzimidazol-2-yl)cyclohexyl]-1-methyl-2-oxo-2,3-dihydro-1H-benzimidazole-5-carboxamide triflouroacetate] | 85
Cc1cccc(=O)n1CC(=O)N[C@@H]1CCC[C@H](c2nc3cc(C(F)(F)F)ccc3[nH]2)C1 [Example 282, 2-(6-methyl-2-oxopyridin-1(2H)-yl)-N-{(1R,3S)-3-[5-(trifluoromethyl)-1H-benzimidazol-2-yl]cyclohexyl} acetamide HCl] | 85.2
CCc1c(C(=O)N[C@@H]2CCC[C@H](c3nc4ccccc4[nH]3)C2)[nH]c2ccccc12 [Example 214, N-[(1R,3S)-3-(1H-benzimidazol-2-yl)cyclohexyl]-3-ethyl-1H-indole-2-carboxamide triflouroacetate] | 100
O=C(N[C@@H]1CCC[C@H](c2nc3ccccc3[nH]2)C1)c1cc2ccc(F)cc2[nH]1 [Example 209, N-[(1R,3S)-3-(1H-benzimidazol-2-yl)cyclohexyl]-6-fluoro-1H-indole-2-carboxamide triflouroacetate] | 32
CC(=O)c1c(C)[nH]c(C(=O)NC2CCCC(c3nc4ccccc4[nH]3)C2)c1C (centres unmarked) [Example 99, 4-acetyl-N-[3-(1H-benzimidazol-2-yl)cyclohexyl]-3,5-dimethyl-1H-pyrrole-2-carboxamide triflouroacetate] | 107
O=C(N[C@@H]1CCCC(c2nc3ccccc3[nH]2)C1)c1ccc2c(c1)OC(F)(F)O2 (stereo partly drawn) [Example 251, N-((1R,3S)-3-(1H-benzo[d]imidaz-ol-2-yl)cyclohexyl)-2,2-difluorobenzo[d] [1,3]dioxole-5-carboxamide] | 102
N#Cc1cccc(NC(=O)N[C@@H]2CCC[C@H](c3nc4ccccc4[nH]3)C2)c1 [Example 231, 1-[(1R,3S)-3-(1H-benzimidazol-2-yl)cyclohexyl] 3-(3-cyanophenyl)-urea] | 103
COc1ccc2[nH]c([C@H]3CCC[C@H](NC(=O)c4ccc5c(c4)OCCO5)C3)nc2c1 [Example 254, N-(3-(5-methoxy-1H-benzo[d]imidaz-ol-2-yl)cyclohexyl)-2,3-dihydrobenzo[b] [1,4]dioxine-6-carboxamide HCl] | 91
O=C(N[C@@H]1CCC[C@H](c2nc3ccccc3[nH]2)C1)c1ccc2nsnc2c1 [Example 206, N-[(1R,3S)-3-(1H-benzimidazol-2-yl)cyclohexyl]-2,1,3-benzothiadiazole-5-carboxamide triflouroacetate] | 56
Cc1ccc2nc([C@H]3CCC[C@@H](NC(=O)c4ccc5c(c4)OCCO5)C3)[nH]c2c1 [Example 168, N-[(1R,3S)-3-(6-methyl-1H-benzimidazol-2-yl)cyclohexyl]-2,3-dihydro-1,4-benzodioxine-6-carboxamide HCl] | 106
COc1cccc2[nH]c(C(=O)N[C@@H]3CCC[C@H](c4nc5ccccc5[nH]4)C3)cc12 [Example 208, N-[(1R,3S)-3-(1H-benzimidazol-2-yl)cyclohexyl]-4-methoxy-1H-indole-2-carboxamide triflouroacetate] | 80
O=C(NC12CCCC(c3nc4cc(C(F)(F)F)ccc4[nH]3)(C1)C2)c1cc2c(cn1)OCCO2 [Example 263, N-{5-[5-(trifluoromethyl)-1H-benzimidazol-2-yl]bicyclo[3.1.1]hept-1-yl}-2,3-dihydro[1,4]di-oxino[2,3-c]pyridine-7-carboxamide] | 91.4
COc1cc(OC)cc(C(=O)NC23CCCC(c4nc5ccccc5[nH]4)(C2)C3)c1 [Example 100, N-[5-(1H-benzimidazol-2-yl)bicyclo[3.1.1]hept-1-yl]-3,5-dimethoxybenz-amide] | 81
O=C(NC1CCCC(c2nc3ccccc3[nH]2)C1)c1cnn(Cc2ccccc2)c1 (centres unmarked) [Example 91, N-[3-(1H-benzimidazol-2-yl)cyclohexyl]-1-benzyl-1H-pyrazole-4-carboxamide triflouroacetate] | 99
Cn1c([C@H]2CCC[C@@H](NC(=O)c3ccc4c(c3)OCCO4)C2)nc2ccccc21 [Example 66, N-[(1R,3S)-3-(1-methyl-1H-benzimidazol-2-yl)cyclohexyl]-2,3-dihydro-1,4-benzodioxine-6-carboxamide HCl] | 107
O=C(NC1CCCC(c2nc3ccc(Br)cc3[nH]2)C1)c1ccc2c(c1)OCCO2 (centres unmarked) [Example 86, N-[3-(6-bromo-1H-benzimidazol-2-yl)cyclohexyl]-2,3-dihydro-1,4-benzodioxine-6-carboxamide HCl] | 102
CN(C)c1ccc2nc(C3CCCC(NC(=O)c4ccc5c(c4)OCCO5)C3)[nH]c2c1 (centres unmarked) [Example 77, N-{3-[6-(dimethylamino)-1H-benzimidazol-2-yl]cyclohexyl}-2,3-dihydro-1,4-benzodioxine-6-carboxamide HCl] | 102
COc1cc(OC)cc(C(=O)NC23CCCC(c4nc5cc(Cl)ccc5[nH]4)(C2)C3)c1 [Example 269, N-[5-(5-chloro-1H-benzimidazol-2-yl)bicyclo[3.1.1]hept-1-yl]-3,5-dimethoxybenz-amide] | 107
O=C(N[C@H]1CCC[C@@H](c2nc3cc(C(F)(F)F)ccc3[nH]2)C1)c1ccc2c(c1)OCCO2 [Example 152, N-{(1S,3R)-3-[5-(trifluoromethyl)-1H-benzimidazol-2-yl]cyclohexyl}-2,3-dihydro-1,4-benzodioxine-6-carboxamide HCl] | 80
COCOc1ccc(C(=O)NC2CCCC(c3nc4ccccc4[nH]3)C2)cc1 (centres unmarked) [Example 96, N-[3-(1H-benzimidazol-2-yl)cyclohexyl]-4-(methoxymeth-oxy)benzamide triflouroacetate] | 93
CC(C)c1ccc(NC(=O)N[C@@H]2CCC[C@H](c3nc4ccccc4[nH]3)C2)cc1 [Example 236, 1-[(1R,3S)-3-(1H-benzimidazol-2-yl)cyclohexyl]-3-(4-isopropylphenyl) urea] | 108
